Laboratory results published in ChEMBL document CHEMBL5126592, “Design, synthesis and activity against drug-resistant bacteria evaluation of C-20, C-23 modified 5-O-mycaminosyltylonolide derivatives” (Eur J Med Chem, 2022).
≈ marks a conversion by molar mass, not a printed value. Calls of active or inactive are those of the source. The rule behind the calls is not given here.

Legend:
Assay type in all cases: functional
Escherichia coli [1] = assay: Antibacterial activity against Escherichia coli ATCC 25922 incubated for 16 to 20 hrs using 10^3 CFU/ml bacterial inoculum by broth microdilution method; details: time 16-20 hrs
Escherichia coli [2] = assay: Antibacterial activity against Escherichia coli ATCC 25922 incubated for 16 to 20 hrs using 10^6 CFU/ml bacterial inoculum by broth microdilution method; details: time 16-20 hrs
[3] = test system: Streptococcus dysgalactiae; assay: Antibacterial activity against Streptococcus dysgalactiae incubated for 16 to 20 hrs by broth microdilution method; details: time 16-20 hrs
Escherichia coli [4] = assay: Antibacterial activity against Escherichia coli ATCC 25922 incubated for 16 to 20 hrs using 10^7 CFU/ml bacterial inoculum by broth microdilution method; details: time 16-20 hrs
Escherichia coli [5] = assay: Antibacterial activity against Escherichia coli ATCC 25922 incubated for 16 to 20 hrs using 10^4 CFU/ml bacterial inoculum by broth microdilution method; details: time 16-20 hrs
Escherichia coli [6] = assay: Antibacterial activity against Escherichia coli incubated for 16 to 20 hrs by broth microdilution method; details: time 16-20 hrs
Cronobacter sakazakii = assay: Antibacterial activity against Cronobacter sakazakii ATCC 29544 incubated for 16 to 20 hrs by broth microdilution method; details: time 16-20 hrs
Pseudomonas aeruginosa = assay: Antibacterial activity against Pseudomonas aeruginosa LTP-3 incubated for 16 to 20 hrs by broth microdilution method; details: time 16-20 hrs
Escherichia coli [7] = assay: Antibacterial activity against Escherichia coli ATCC 25922 incubated for 16 to 20 hrs in presence of 10% foetal bovine serum by broth microdilution method; details: time 16-20 hrs
Escherichia coli [8] = assay: Antibacterial activity against Escherichia coli ATCC 25922 incubated for 16 to 20 hrs using 10^5 CFU/ml bacterial inoculum by broth microdilution method; details: time 16-20 hrs
[9] = test system: Staphylococcus chromogenes; assay: Antibacterial activity against Staphylococcus chromogenes incubated for 16 to 20 hrs by broth microdilution method; details: time 16-20 hrs
Escherichia coli [10] = assay: Antibacterial activity against Escherichia coli ATCC 25922 incubated for 16 to 20 hrs in presence of 5% foetal bovine serum by broth microdilution method; details: time 16-20 hrs
Escherichia coli [11] = assay: Antibacterial activity against Escherichia coli ATCC 25922 incubated for 16 to 20 hrs by broth microdilution method; details: time 16-20 hrs
Escherichia coli [12] = assay: Antibacterial activity against Escherichia coli ATCC 25922 incubated for 16 to 20 hrs in presence of 50% foetal bovine serum by broth microdilution method; details: time 16-20 hrs
Staphylococcus aureus [13] = assay: Antibacterial activity against Staphylococcus aureus ATCC 25923 incubated for 16 to 20 hrs by broth microdilution method; details: time 16-20 hrs
Escherichia coli [14] = assay: Antibacterial activity against Escherichia coli ATCC 25922 incubated for 16 to 20 hrs in absence of foetal bovine serum by broth microdilution method; details: time 16-20 hrs
Enterococcus faecium = assay: Antibacterial activity against Enterococcus faecium incubated for 16 to 20 hrs by broth microdilution method; details: time 16-20 hrs
Escherichia coli [15] = assay: Antibacterial activity against Escherichia coli ATCC 25922 incubated for 16 to 20 hrs in presence of 25% foetal bovine serum by broth microdilution method; details: time 16-20 hrs
Staphylococcus aureus [16] = assay: Antibacterial activity against Staphylococcus aureus incubated for 16 to 20 hrs by broth microdilution method; details: time 16-20 hrs
Klebsiella pneumoniae = assay: Antibacterial activity against Klebsiella pneumoniae ATCC 13883 incubated for 16 to 20 hrs by broth microdilution method; details: time 16-20 hrs
Staphylococcus aureus [17] = assay: Antibacterial activity against Staphylococcus aureus ATCC 29213 at pH 8.6 incubated for 16 to 20 hrs in presence of 50% foetal bovine serum by broth microdilution method; details: time 16-20 hrs
Escherichia coli [18] = assay: Induction of drug resistance in Escherichia coli ATCC 25922 assessed as increase in MIC measured after 30 passages by broth microdilution method
Staphylococcus aureus [19] = assay: Antibacterial activity against Staphylococcus aureus ATCC 29213 at pH 8.6 incubated for 16 to 20 hrs in presence of 5% foetal bovine serum by broth microdilution method; details: time 16-20 hrs
Staphylococcus aureus [20] = assay: Antibacterial activity against Staphylococcus aureus ATCC 29213 at pH 8.6 incubated for 16 to 20 hrs in presence of 10% foetal bovine serum by broth microdilution method; details: time 16-20 hrs
Staphylococcus aureus [21] = assay: Antibacterial activity against Staphylococcus aureus ATCC 29213 incubated for 16 to 20 hrs using 10^3 CFU/ml bacterial inoculum by broth microdilution method; details: time 16-20 hrs
Staphylococcus aureus [22] = assay: Antibacterial activity against Staphylococcus aureus ATCC 29213 incubated for 16 to 20 hrs using 10^6 CFU/ml bacterial inoculum by broth microdilution method; details: time 16-20 hrs
Staphylococcus aureus [23] = assay: Antibacterial activity against Staphylococcus aureus ATCC 29213 at pH 8.6 incubated for 16 to 20 hrs in presence of 25% foetal bovine serum by broth microdilution method; details: time 16-20 hrs
Staphylococcus aureus [24] = assay: Antibacterial activity against Staphylococcus aureus ATCC 29213 incubated for 16 to 20 hrs using 10^5 CFU/ml bacterial inoculum by broth microdilution method; details: time 16-20 hrs
Staphylococcus aureus [25] = assay: Antibacterial activity against Staphylococcus aureus ATCC 29213 incubated for 16 to 20 hrs using 10^4 CFU/ml bacterial inoculum by broth microdilution method; details: time 16-20 hrs

Row | SMILES | MIC [3] [µg/mL] | MIC (Escherichia coli [6]) [µg/mL] | MIC (Cronobacter sakazakii) [µg/mL] | MIC (Pseudomonas aeruginosa) [µg/mL] | MIC [9] [µg/mL] | MIC (Escherichia coli [11]) [µg/mL] | MIC (Staphylococcus aureus [13]) [µg/mL] | MIC (Enterococcus faecium) [µg/mL] | MIC (Staphylococcus aureus [16]) [µg/mL] | MIC (Klebsiella pneumoniae) [µg/mL] | other results
1 | C[C@@H](O)[C@H]1C(=O)N2C(C(=O)O)=C(S[C@@H]3CN[C@H](C(=O)N(C)C)C3)[C@H](C)[C@H]12 [MEROPENEM] | 8 (≈ 20.9 µM) | < 0.0625 | 0.0625 (≈ 0.163 µM) | < 0.0625 | 0.0625 (≈ 0.163 µM) | 0.125 (≈ 0.326 µM) | 0.0625 (≈ 0.163 µM) | 8 (≈ 20.9 µM) | < 0.0625 | < 0.0625 | MIC (Escherichia coli [1]): < 0.0625 µg/mL; MIC (Escherichia coli [2]): < 0.0625 µg/mL; MIC (Escherichia coli [4]): < 0.0625 µg/mL; MIC (Escherichia coli [5]): < 0.0625 µg/mL; MIC (Escherichia coli [7]): < 0.0625 µg/mL; MIC (Escherichia coli [8]): < 0.0625 µg/mL; MIC (Escherichia coli [10]): < 0.0625 µg/mL; MIC (Escherichia coli [12]): < 0.0625 µg/mL; MIC (Escherichia coli [14]): < 0.0625 µg/mL; MIC (Escherichia coli [15]): < 0.0625 µg/mL
2 | CC(=O)NC[C@H]1CN(c2ccc(N3CCOCC3)c(F)c2)C(=O)O1 [LINEZOLID] | 2 (≈ 5.93 µM) | 32 (≈ 94.9 µM) | > 32 | 32 (≈ 94.9 µM) | 1 (≈ 2.96 µM) | > 32 |  | 2 (≈ 5.93 µM) | 1 (≈ 2.96 µM) | > 32 | MIC (Staphylococcus aureus [17]): > 32 µg/mL; Activity (Escherichia coli [18]): Active; MIC (Staphylococcus aureus [19]): > 32 µg/mL; MIC (Staphylococcus aureus [20]): > 32 µg/mL; MIC (Staphylococcus aureus [21]): 0.25 µg/mL (≈ 0.741 µM); MIC (Staphylococcus aureus [22]): 1 µg/mL (≈ 2.96 µM); MIC (Staphylococcus aureus [23]): > 32 µg/mL; MIC (Staphylococcus aureus [24]): 0.5 µg/mL (≈ 1.48 µM); MIC (Staphylococcus aureus [25]): 0.25 µg/mL (≈ 0.741 µM)
3 | CC[C@H]1OC(=O)C[C@@H](O)[C@H](C)[C@@H](O[C@@H]2O[C@H](C)[C@@H](O)[C@H](N(C)C)[C@H]2O)[C@@H](CCN(Cc2ccccc2)Cc2cn(-c3cnc4ccccc4c3)nn2)C[C@@H](C)C(=O)/C=C/C(C)=C/[C@@H]1CO | 0.5 (≈ 0.557 µM) | 8 (≈ 8.92 µM) | 32 (≈ 35.7 µM) | 4 (≈ 4.46 µM) | 4 (≈ 4.46 µM) | 8 (≈ 8.92 µM) | 0.25 (≈ 0.279 µM) | 4 (≈ 4.46 µM) | 0.5 (≈ 0.557 µM) | 8 (≈ 8.92 µM) | 
4 | CC[C@H]1OC(=O)C[C@@H](O)[C@H](C)[C@@H](O[C@@H]2O[C@H](C)[C@@H](O)[C@H](N(C)C)[C@H]2O)[C@@H](CC=O)C[C@@H](C)C(=O)/C=C/C(C)=C/[C@@H]1CO | 1 (≈ 1.67 µM) | > 32 | > 32 | 32 (≈ 53.5 µM) | 1 (≈ 1.67 µM) | > 32 | 0.5 (≈ 0.836 µM) | 1 (≈ 1.67 µM) | 1 (≈ 1.67 µM) | > 32 | 
